Reference: patent publication US20150157691A1, “Galectin-3 to Treat Ovarian Cancer” (Texas Tech University System, priority 2013, published 2015)

Experiments:
Pt1 = assay: Cell viability (ViaLight Plus), primary OC cells Pt1; type: cell-based, human; details: Gal-3C single agent, escalating concentrations (0, 2, 10, 20 μg/mL), 48 hours, on average
Method: (§1) Cells. The OC cell lines used in this study were SKOV-3 and ID8 (American Type Culture Collection, Manassas, Va., USA), while primary epithelial OC cells from two patients were obtained with approval from the Texas Tech University HSC IRB (L-Micro Study, IRB NUMBER: L04-095), and the patients' written informed consent. All OC cells were cultured in RPMI-1640 medium supplemented with 10% fetal bovine serum (FBS, Thermo Scientific, Rockford, Ill., USA) in 5% CO2 atmosphere at 37° C. Human Umbilical Vein Endothelial Cells (HUVEC, American Type Culture Collection) were maintained in EGM-2 medium supplemented with endothelial cells growth factors (Lonza, Houston, Tex., USA) and were used within 10 passages.
(§2) Cell viability. Cell proliferation was assessed with a ViaLight Plus Cell Proliferation and Cytotoxicity BioAssay Kit (Lonza, Walkersville, Md., USA) according to the directions of the manufacturer. […] Luminescence was measured with a 1-s integrated setting in a Berthold luminometer.
(§3) Administration of Gal-3C reduced OC cell viability when used as a single agent and improved the effects of paclitaxel. OC cells were treated with escalating concentrations of Gal-3C (0, 2, 10, and 20 μg/mL) for 48 hours, then viability was measure as described in methods, and expressed as percentage of control cells (treated with equal amounts of drug vehicle). […]

ID8 = assay: Cell viability (ViaLight Plus), ID8; type: cell-based, murine; details: Gal-3C single agent, escalating concentrations (0, 2, 10, 20 μg/mL), 48 hours, on average
Method: (§4) Cell viability. Cell proliferation was assessed with a ViaLight Plus Cell Proliferation and Cytotoxicity BioAssay Kit (Lonza, Walkersville, Md., USA) according to the directions of the manufacturer. In brief, OC cells were seeded in 100 μL RPMI-1640 with 10% heat-inactivated FBS in 96-well plates (8×10^3/well). Each drugs/drug combination was tested in triplicate. Luminescence was measured with a 1-s integrated setting in a Berthold luminometer.
(§5) Administration of Gal-3C reduced OC cell viability when used as a single agent and improved the effects of paclitaxel. OC cells were treated with escalating concentrations of Gal-3C (0, 2, 10, and 20 μg/mL) for 48 hours, then viability was measure as described in methods, and expressed as percentage of control cells (treated with equal amounts of drug vehicle). […] On average, viability was reduced by 25% in SKOV-3, 50% in ID8, 29% in Pt1 and 57% in Pt2 cells. Then, in a separate set of experiments, OC cells were treated for 48 hours with 10 μg/mL Gal-3C, 8 nM paclitaxel, or combined 10 μg/mL Gal-3C+8 nM paclitaxel.

[1] = tested on: OC cells (SKOV-3, ID8, Pt1, Pt2); assay: Cell viability, statements for all OC cells tested; type: cell-based; details: 48 hours
Method: as §4, §5

OC cells [2] = assay: Transwell migration assay of OC cells; type: cell-based; details: 48-hour treatment; 10 μg/mL Gal-3C, 8 nM paclitaxel or combined; compared with controls
Method: Migration assays. 4×10^5 cells were plated in 100 μL serum-free culture medium (supplemented with drugs or vehicle) in the top chambers of 24-well Transwell™ polycarbonate inserts (Corning Costar, NY, USA) with 8-μm pores. Complete culture medium (600 μL) was added to the bottom chamber. After incubation for 4 hours, cells on lower side of the filter were fixed, stained and counted as described (25).
After 48-hour treatment with 10 μg/mL Gal-3C, 8 nM paclitaxel, or combined drugs, OC cells were tested for in vitro invasivity and motility abilities as described in methods.

HUVEC cells [3] = assay: Vascular endothelial cell (HUVEC) Transwell migration assay with OC conditioned medium; type: cell-based, human; details: for HUVEC migration induced by conditioned media of treated OC cells: conditioned media from SKOV-3 cells treated 48 hours, 10 μg/mL Gal-3C or 8 nM paclitaxel, compared with controls; for HUVEC chemotaxis, direct effect of residual drugs: control OC-conditioned medium supplemented with 2 μg/mL Gal-3C, 1.6 nM paclitaxel, or combined, results not shown
Method: The experiments were run in triplicate and the results are expressed as the mean number of migrated cells in the presence of different stimuli.
After 48-hour treatments (10 μg/mL Gal-3C, 8 nM paclitaxel, or combined drugs), the conditioned media form SKOV-3 cells was harvested and tested for its ability to induce migration of HUVEC cells in a Transwell assay. […] To test if residual drugs in the conditioned media could inhibit HUVEC migration, a migration assay was performed in the presence of control OC-conditioned medium supplemented with 20% of drug amounts (2 μg/mL Gal-3C, 1.6 nM paclitaxel, and combined drugs).

HUVEC cells [4] = assay: In vitro tubule formation (angiogenesis) assay with OC conditioned media; type: cell-based, human; details: for formation of vessel-like structures by HUVEC cells: conditioned media (20% V/V) of OC cells pre-treated 48 hours, 10 μg/mL Gal-3C, 8 nM paclitaxel or combination; for average number of branching points: conditioned media of 48-h treated OC cells, all tested OC cells, compared with vehicle-treated cells; for tubule formation, direct effect of drugs: conditioned media of untreated OC cells (20% V/V) supplemented with 10 μg/mL Gal-3C, 8 nM paclitaxel or both, results not shown
Method: Tubule formation assay. A capillary tubule formation assay was performed as previously described (25). Briefly, growth factor-reduced Matrigel™ (50 μL/well; Becton Dickinson) was added with 30 ng/mL recombinant basic fibroblastic growth factor (bFGF; R&D Systems) and incubated for 1 hour at 37° C. 2-h serum-starved HUVEC cells (5,000), were resuspended in 200 μL serum-free EGM-2 medium (Lonza) supplemented with 20% V/V conditioned medium from differently treated OC cells (obtained after 48-h treatment of OC cells with 10 μg/mL Gal-3C, 8 nM paclitaxel, the combination of both, or 0.6% V/V PBS as drug vehicle). HUVEC were then seeded onto the Matrigel™ and incubated at 37° C. and 5% CO2 for 16 hours to allow tubule formation. The assays were run in triplicate, and microphotographs were taken using 40× and 20× objectives with an inverted X71 microscope (Olympus). Pictures were also used to count the number of branching points originated by HUVEC cells, as a measure of the degree of angiogenesis, by the Wimasis WimTube software (Wimasis GmbH, Munich, Germany). Statistically significant differences in the number of branching points were analyzed by the Kruskal-Wallis test followed by a Dunns post-test, to compare all the treatment groups with each other.
Gal-3C blocked OC cell angiogenic potential and αvβ3 integrin clustering. To study the effects of Gal-3C on OC cells ability to induce the formation of new vessels, an in vitro tubule formation assay was carried out using HUVEC cells stimulated with the conditioned media (20% V/V) of OC cells pre-treated for 48 hours with 10 μg/mL Gal-3C, 8 nM paclitaxel, or a combination of both treatments. […] The amount of branching points was also calculated through the Wimasis WimTube software, as described hereinabove. […] A parallel set of experiments were performed using a mixture consisting of the 48-hour conditioned media of each untreated OC cell line (20% V/V) supplemented with 10 μg/mL Gal-3C, 8 nM paclitaxel, or 10 μg/mL Gal-3C+8 nM paclitaxel. […] This outcome on in vitro angiogenesis was correlated with an evident reduction in the clusters of αvβ3 integrins (FIG. 7).

[5] = compared with available standard treatments; cited from earlier work
Pt2 = assay: Cell viability (ViaLight Plus), primary OC cells Pt2; type: cell-based, human; details: Gal-3C single agent, escalating concentrations (0, 2, 10, 20 μg/mL), 48 hours, on average
Method: as §1, §2, §3

OC cells [6] = assay: Matrigel invasion assay; type: cell-based; details: 48-hour treatment; 10 μg/mL Gal-3C, 8 nM paclitaxel or combined; compared with controls
Method: Invasion assay. OC invasion potential was measured as described (25), using Transwell™ polycarbonate inserts (5-μm pore size).
Gal-3C reduced OC invasion and migration alone and in combination with paclitaxel. After 48-hour treatment with 10 μg/mL Gal-3C, 8 nM paclitaxel, or combined drugs, OC cells were tested for in vitro invasivity and motility abilities as described in methods.

SKOV-3 = assay: Cell viability (ViaLight Plus), SKOV-3; type: cell-based, human; details: Gal-3C single agent, escalating concentrations (0, 2, 10, 20 μg/mL), 48 hours, on average
Method: as §4, §5

Akt/NF-κB pathway = assay: Western blotting of Akt/NF-κB pathway activation in OC cells; type: cell-based; details: 48 hours, Western blot; for levels of phosphorylated, active NF-κB (P-p65) / phospho-Akt (P-Akt) levels: 10 μg/mL Gal-3C, 8 nM paclitaxel or combined
Method: Western blotting. Cells were harvested and washed twice with PBS, then lysed (25), and resolved on 12% Bis-Tris (Bis(2-hydroxyethyl)-amino-tris(hydroxymethyl)-methane) poly-acrylamide gel (Invitrogen) and then electrotransferred onto 0.2 μm nitrocellulose membrane. After rinsing in PBS-Tween, the blot was incubated in protein-free blocking buffer (Pierce/Thermo) at 4° C. overnight, then incubated with the indicated primary antibodies (Cell Signaling Technology, Inc., Danvers, Mass. USA) diluted in blocking buffer for 2 hours at RT. After washing 5 times with PBS-Tween, the blot was incubated with matched horseradish peroxidase-coupled secondary antibodies, and developed with the ECL Western blotting Detection System from Perkin-Elmer Life Sciences (Boston, Mass., USA).
Gal-3C reversed the effect of paclitaxel on NF-κB activation by reducing the phosphorylation of Akt. OC cells treated for 48 hours with 10 μg/mL Gal-3C, 8 nM paclitaxel, or combined treatments as described above, then protein extracts were analyzed by Western blotting. […] Increased or decreased levels of p65 phosphorylation (P-p65) were in accordance with higher or lower levels (respectively) of IKB and IKKα/β phosphorylation, as expected. […] To rule out the possibility that alterations in the phosphorylation of p-65, IKB, IKK, or Akt were the results of modulations in the expression levels, total p-65, IKB, IKK, or Akt (phosphorylated and not-phosphorylated forms) were also examined (FIGS. 3A and 3B).

[7] = tested on: αvβ3 integrin clusters in HUVEC cells; assay: αvβ3 integrin clustering assay; type: cell-based, human; details: conditioned medium of OC cells pre-treated 48 h; 10 μg/mL Gal-3C, 8 nM paclitaxel or combined
Method: αvβ3 integrin clustering assay. HUVEC cells were cultured in 8-chamber slides coated with 10 μg/mL fibronectin (10^4 cells/chamber). Cells were incubated with conditioned medium of SKOV-3 cells (obtained as described for the tubule formation assay) for 20 minutes to allow integrin clustering, then fixed with 4% WN buffered (pH=7.5) paraformaldehyde in PBS (10 minutes at 37° C.). Then, cells were incubated with 10 μg/mL anti-integrin αvβ3 antibody (R&D Systems, 1:200 dilution in PBS) for 1 hour at RT, followed by two washing steps in PBS (5 minutes each) prior to the addition of FITC-anti-mouse IgG (1:1000 dilution in PBS) for 1 hour at RT. Microphotographs of randomly selected fields were acquired at 60× magnification by confocal microscopy (Leica TCS-SL Confocal Spectral Microscope System, Leica Microsystems, Buffalo Grove, Ill., USA).
Gal-3C blocked OC cell angiogenic potential and αvβ3 integrin clustering. To study the effects of Gal-3C on OC cells ability to induce the formation of new vessels, an in vitro tubule formation assay was carried out using HUVEC cells stimulated with the conditioned media (20% V/V) of OC cells pre-treated for 48 hours with 10 μg/mL Gal-3C, 8 nM paclitaxel, or a combination of both treatments. […] The amount of branching points was also calculated through the Wimasis WimTube software, as described hereinabove. […]

Molecule | viability reduced (percentage of control cells) (Pt1) [%] | viability reduced (percentage of control cells) (ID8) [%] | concentration from which cell viability is significantly reduced ([1]; 0, 2, 10, 20 μg/mL tested) [µg/mL] | cell viability, comparison between treatments ([1]; 10 μg/mL Gal-3C, 8 nM paclitaxel or combined) | OC cell migration (OC cells [2]) | HUVEC migration induced by conditioned media of treated OC cells (HUVEC cells [3]) | HUVEC chemotaxis, direct effect of residual drugs (HUVEC cells [3]) | formation of vessel-like structures by HUVEC cells (HUVEC cells [4]) | average number of branching points (HUVEC cells [4]) | tubule formation, direct effect of drugs (HUVEC cells [4]) | toxicity profile [5] | viability reduced (percentage of control cells) (Pt2) [%] | OC cell invasion (OC cells [6]) | viability reduced (percentage of control cells) (SKOV-3) [%] | phosphorylated IKKB, IKK levels (Akt/NF-κB pathway; 10 μg/mL Gal-3C alone, compared with controls) | levels of phosphorylated, active NF-κB (P-p65) (Akt/NF-κB pathway) | phospho-Akt (P-Akt) levels (Akt/NF-κB pathway) | αvβ3 integrin clusters in HUVEC cells [7]
Gal-3C: truncated, dominant-negative form of Galectin-3; last 143 carboxy-terminal amino acid residues of human Galectin-3 (SEQ ID NO. 4) | 29 | 50 | ≥ 10 | more effective in reducing cell viability compared with paclitaxel in all cell lines except SKOV-3 | significantly reduced | significant effect | did not significantly affect HUVEC chemotaxis | significantly reduce | significantly reduced | unable to significantly affect tubule formation | very low toxicity profile | 57 | significantly reduced | 25 | reduction | reduction | reduction | completely abrogated
CC(=O)O[C@H]1C(=O)[C@@]2(C)[C@H]([C@H](OC(=O)c3ccccc3)[C@]3(O)C[C@H](OC(=O)[C@H](O)[C@@H](NC(=O)c4ccccc4)c4ccccc4)C(C)=C1C3(C)C)[C@]1(OC(C)=O)CO[C@@H]1C[C@@H]2O [paclitaxel, Paclitaxel, reference compound] |  |  |  |  |  | unable to reduce the production of HUVEC chemotactic factors | did not significantly affect HUVEC chemotaxis | significantly reduce | significantly reduced | unable to significantly affect tubule formation |  |  |  |  |  | increased | increased | still preserved the ability to induce αvβ3 integrin cluster in HUVEC cells (even if at a lower extent compared with control)
